This experiment deals with T1, BRM (Homo sapiens, UniProt P51531).
T1 construct: In-Cell Western Screen of BRM Degradation in SW1573 Cells; endogenous in cells; host or cells: SW1573
The experiment can be described thus: In-cell Western screen of BRM degradation in SW1573 cells (Dmax and DC50). The class given is cell-based. The procedure, abridged: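 After adhering overnight, cells received compound for 18-20 hours. They were then washed in cold DPBS, fixed with 4% PFA for 20 min and permeabilized for 30 min. Blocking and fluorescent secondary staining followed before imaging.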

[1] abbreviates: BRM degradation, SW1573 cells, read-out: DC50.
Where [2] appears, read: BRM degradation, SW1573 cells, Table 2D, read-out: *DC50.
[3] abbreviates: SW1573, % degraded, when tested at the top concentration of between 0.3 and 10 μM, read-out: BRM Dmax (%).
[4] abbreviates: target protein degradation, read-out: BRM DC50.
The mark [5] stands for this setting: BRM degradation, SW1573 cells, tested at the top concentration of between 0.3 and 10 μM, read-out: Dmax (%) (% degraded).

Like-named read-outs stand apart in the source and are kept apart here.

Broadly, the DC50 is the concentration giving 50% degradation. As a reminder, the Dmax is the greatest extent of degradation seen.

T1 sequence (P51531 whole entry): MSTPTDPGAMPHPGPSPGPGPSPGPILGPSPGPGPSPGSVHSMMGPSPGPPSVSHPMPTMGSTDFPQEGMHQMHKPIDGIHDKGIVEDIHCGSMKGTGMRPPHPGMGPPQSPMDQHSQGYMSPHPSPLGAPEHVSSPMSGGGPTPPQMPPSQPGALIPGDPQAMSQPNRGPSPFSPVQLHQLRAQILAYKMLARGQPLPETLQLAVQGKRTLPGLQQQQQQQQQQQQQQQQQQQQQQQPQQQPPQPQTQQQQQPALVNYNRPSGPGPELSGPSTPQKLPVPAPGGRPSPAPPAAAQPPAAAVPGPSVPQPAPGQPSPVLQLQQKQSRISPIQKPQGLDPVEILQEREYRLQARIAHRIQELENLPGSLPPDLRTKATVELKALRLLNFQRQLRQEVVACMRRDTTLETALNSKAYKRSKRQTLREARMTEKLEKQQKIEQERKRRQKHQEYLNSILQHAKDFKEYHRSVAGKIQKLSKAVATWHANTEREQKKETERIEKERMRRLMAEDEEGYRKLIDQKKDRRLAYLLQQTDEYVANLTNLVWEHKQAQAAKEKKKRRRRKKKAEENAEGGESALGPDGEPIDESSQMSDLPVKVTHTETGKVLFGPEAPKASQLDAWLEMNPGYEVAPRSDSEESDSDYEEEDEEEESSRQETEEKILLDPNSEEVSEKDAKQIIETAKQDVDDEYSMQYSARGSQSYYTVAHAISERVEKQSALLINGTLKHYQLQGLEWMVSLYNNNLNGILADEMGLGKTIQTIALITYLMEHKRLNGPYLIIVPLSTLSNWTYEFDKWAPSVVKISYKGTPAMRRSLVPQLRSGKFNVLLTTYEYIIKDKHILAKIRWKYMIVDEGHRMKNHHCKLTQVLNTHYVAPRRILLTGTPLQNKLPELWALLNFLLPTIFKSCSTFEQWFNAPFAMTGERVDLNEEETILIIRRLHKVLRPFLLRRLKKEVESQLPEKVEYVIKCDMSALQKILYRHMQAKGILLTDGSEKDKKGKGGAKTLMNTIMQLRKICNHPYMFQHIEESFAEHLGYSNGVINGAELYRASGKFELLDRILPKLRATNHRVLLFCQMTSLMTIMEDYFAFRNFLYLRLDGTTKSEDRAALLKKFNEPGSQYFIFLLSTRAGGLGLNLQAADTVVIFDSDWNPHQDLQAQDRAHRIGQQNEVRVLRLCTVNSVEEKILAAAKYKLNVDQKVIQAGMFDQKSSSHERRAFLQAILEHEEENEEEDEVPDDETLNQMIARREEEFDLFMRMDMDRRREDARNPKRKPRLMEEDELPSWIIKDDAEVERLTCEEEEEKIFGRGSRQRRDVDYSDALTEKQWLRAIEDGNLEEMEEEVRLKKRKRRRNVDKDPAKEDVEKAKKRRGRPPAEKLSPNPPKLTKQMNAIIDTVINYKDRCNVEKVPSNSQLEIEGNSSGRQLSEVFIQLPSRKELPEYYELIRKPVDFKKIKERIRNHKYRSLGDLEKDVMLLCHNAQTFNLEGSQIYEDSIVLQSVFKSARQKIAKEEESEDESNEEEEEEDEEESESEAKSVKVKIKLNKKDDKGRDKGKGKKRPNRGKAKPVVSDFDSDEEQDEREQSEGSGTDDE

As for `Cc1ncsc1-c1ccc(CNC(=O)[C@@H]2C[C@@H](O)CN2C(=O)[C@@H](NC(=O)COCCOCCOCCOCCOCCOCCOCCn2cc(-c3cc(-c4ccccc4O)nnc3N)cn2)C(C)(C)C)cc1` [compound 5, (2S,4R)-1-((S)-26-(4-(3-amino-6-(2-hydroxyphenyl)pyridazin-4-yl)-1H-pyrazol-1-yl)-2-(tert-butyl)-4-oxo-6,9,12,15,18,21,24-heptaoxa-3-azahexacosanoyl)-4-hydroxy-N-(4-(4-methylthiazol-5-yl)benzyl)pyrrolidine-2-carboxamide], the DC50 under setting [1] is more than 30 nM. For the same compound, the Dmax (BRM degradation, SW1573 cells, when tested at the top concentration of between 0.3 and 10 μM, read-out: Dmax (%) (% degraded)) is more than 75%. In the case of `Cc1ncsc1-c1ccc([C@H](C)NC(=O)[C@@H]2C[C@@H](O)CN2C(=O)C(c2cc(N3CCC(CN4CCC(O[C@H]5C[C@H](CN6CCOC7(CCN(c8cc(-c9ccccc9O)nnc8N)CC7)C6)C5)CC4)CC3)no2)C(C)C)cc1` (stereo partly drawn) [compound 610, (2S,4R)-1-((R)-2-(3-(4-((4-((1r,3r)-3-((9-(3-amino-6-(2-hydroxyphenyl)pyridazin-4-yl)-1-oxa-4,9-diazaspiro[5.5]undecan-4-yl)methyl)cyclobutoxy)piperidin-1-yl)methyl)piperidin-1-yl)isoxazol-5-yl)-3-methylbutanoyl)-4-hydroxy-N-((S)-1-(4-(4-methylthiazol-5-yl)phenyl)ethyl)pyrrolidine-2-carboxamide], the Dmax (BRM degradation, SW1573 cells, Table 2D, read-out: **Dmax (%) (% degraded)) is more than 75%. For the same compound, under setting [2], the DC50 is less than 2.5 nM. As for `Cc1ncsc1-c1ccc([C@H](C)NC(=O)[C@@H]2C[C@@H](O)CN2C(=O)[C@@H](c2cc(N3CCC(CN4CCC(O[C@H]5C[C@H](C#C[C@H](C)n6cc(-c7cc(-c8ccccc8O)nnc7N)cn6)C5)CC4)CC3)no2)C(C)C)cc1` [compound 497, (2S,4R)-1-((R)-2-(3-(4-((4-((1S,3r)-3-((S)-3-(4-(3-amino-6-(2-hydroxyphenyl)pyridazin-4-yl)-1H-pyrazol-1-yl)but-1-yn-1-yl)cyclobutoxy)piperidin-1-yl)methyl)piperidin-1-yl)isoxazol-5-yl)-3-methylbutanoyl)-4-hydroxy-N-((S)-1-(4-(4-methylthiazol-5-yl)phenyl)ethyl)pyrrolidine-2-carboxamide], the DC50 (BRM degradation, read-out: BRM DC50) is less than 2.5 nM. Also, under setting [3], the Dmax is more than 75%. For the compound `Cc1ncsc1-c1ccc(CNC(=O)[C@@H]2C[C@@H](O)CN2C(=O)[C@H](c2cc(OCCN3CCC(O[C@H]4C[C@H](Oc5cc(N6C7CCC6CN(c6cc(-c8ccccc8O)nnc6N)C7)ccn5)C4)CC3)no2)C(C)C)c(C#N)c1` [compound 224, (2S,4R)-1-((2S)-2-(3-(2-(4-((1r,3S)-3-((4-(3-(3-amino-6-(2-hydroxyphenyl)pyridazin-4-yl)-3,8-diazabicyclo[3.2.1]octan-8-yl)pyridin-2-yl)oxy)cyclobutoxy)piperidin-1-yl)ethoxy)isoxazol-5-yl)-3-methylbutanoyl)-N-(2-cyano-4-(4-methylthiazol-5-yl)benzyl)-4-hydroxypyrrolidine-2-carboxamide], the DC50 under setting [1] was more than 30 nM.

On to `Cc1ncsc1-c1ccc([C@H](C)NC(=O)[C@@H]2C[C@@H](O)CN2C(=O)[C@@H](c2cc(N3CCC4(CCN(C[C@H]5C[C@H](Oc6cc(N7C8CCC7CN(c7cc(-c9ccccc9O)nnc7N)C8)ccn6)C5)CC4)CC3)no2)C(C)C)cc1` [compound 646, (2S,4R)-1-((2R)-2-(3-(9-(((1r,3R)-3-((4-(3-(3-amino-6-(2-hydroxyphenyl)pyridazin-4-yl)-3,8-diazabicyclo[3.2.1]octan-8-yl)pyridin-2-yl)oxy)cyclobutyl)methyl)-3,9-diazaspiro[5.5]undecan-3-yl)isoxazol-5-yl)-3-methylbutanoyl)-4-hydroxy-N-((S)-1-(4-(4-methylthiazol-5-yl)phenyl)ethyl)pyrrolidine-2-carboxamide], for which the DC50 under setting [1] is less than 2.5 nM. The Dmax (BRM degradation, SW1573 cells, read-out: Dmax (% degraded)) is more than 75%. `Cc1ncsc1-c1ccc([C@H](C)NC(=O)[C@@H]2C[C@@H](O)CN2C(=O)[C@@H](c2cc(OCCC3CCN(C(=O)[C@H]4C[C@H](CN5CCC(n6cc(-c7cc(-c8ccccc8O)nnc7N)cn6)CC5)C4)CC3)no2)C(C)C)cc1` [compound 468, (2S,4R)-1-((R)-2-(3-(2-(1-((1r,3R)-3-((4-(4-(3-amino-6-(2-hydroxyphenyl)pyridazin-4-yl)-1H-pyrazol-1-yl)piperidin-1-yl)methyl)cyclobutane-1-carbonyl)piperidin-4-yl)ethoxy)isoxazol-5-yl)-3-methylbutanoyl)-4-hydroxy-N-((S)-1-(4-(4-methylthiazol-5-yl)phenyl)ethyl)pyrrolidine-2-carboxamide]: under setting [4], the DC50 is more than 30 nM. As to `Cc1ncsc1-c1cc(F)c([C@H](C)NC(=O)[C@@H]2C[C@@H](O)CN2C(=O)[C@H](c2cc(OCCN3CCC(O[C@H]4C[C@H](Oc5cc(N6C7CCC6CN(c6cc(-c8ccccc8O)nnc6N)C7)ccn5)C4)CC3)no2)C(C)C)cn1` [compound 540, (2S,4R)-1-((2S)-2-(3-(2-(4-((1r,3S)-3-((4-(3-(3-amino-6-(2-hydroxyphenyl)pyridazin-4-yl)-3,8-diazabicyclo[3.2.1]octan-8-yl)pyridin-2-yl)oxy)cyclobutoxy)piperidin-1-yl)ethoxy)isoxazol-5-yl)-3-methylbutanoyl)-N-((S)-1-(4-fluoro-6-(4-methylthiazol-5-yl)pyridin-3-yl)ethyl)-4-hydroxypyrrolidine-2-carboxamide], the DC50 under setting [2] is more than 30 nM.

Consider `Cc1ncsc1-c1ccc([C@H](C)NC(=O)[C@@H]2C[C@@H](O)CN2C(=O)[C@@H](c2cc(OCC(=O)N3CCC(O[C@H]4C[C@H](Oc5cc(N6C7CCC6CN(c6cc(-c8ccccc8O)nnc6N)C7)ccn5)C4)CC3)no2)C(C)C)cn1` [compound 286, (2S,4R)-1-((2R)-2-(3-(2-(4-((1r,3R)-3-((4-(3-(3-amino-6-(2-hydroxyphenyl)pyridazin-4-yl)-3,8-diazabicyclo[3.2.1]octan-8-yl)pyridin-2-yl)oxy)cyclobutoxy)piperidin-1-yl)-2-oxoethoxy)isoxazol-5-yl)-3-methylbutanoyl)-4-hydroxy-N-((S)-1-(6-(4-methylthiazol-5-yl)pyridin-3-yl)ethyl)pyrrolidine-2-carboxamide], for which the DC50 under setting [1] was 2.5 to 10 nM. For the same compound, under setting [5], the Dmax is more than 75%. Take `Cc1ncsc1-c1ccc([C@@H](NC(=O)[C@@H]2C[C@@H](O)CN2C(=O)[C@@H](c2cc(OCCN3CCC(O[C@H]4C[C@H](Oc5cc(N6C7CCC6CN(c6cc(-c8ccccc8O)nnc6N)C7)ccn5)C4)CC3)no2)C(C)C)C(=O)N(C)C2CCC2)cc1` [compound 420, (2S,4R)-1-((2R)-2-(3-(2-(4-((1r,3R)-3-((4-(3-(3-amino-6-(2-hydroxyphenyl)pyridazin-4-yl)-3,8-diazabicyclo[3.2.1]octan-8-yl)pyridin-2-yl)oxy)cyclobutoxy)piperidin-1-yl)ethoxy)isoxazol-5-yl)-3-methylbutanoyl)-N-((R)-2-(cyclobutyl(methyl)amino)-1-(4-(4-methylthiazol-5-yl)phenyl)-2-oxoethyl)-4-hydroxypyrrolidine-2-carboxamide]: under setting [3], the Dmax is more than 75%. For the same compound, the DC50 (degradation of BRM, read-out: BRM DC50) is less than 2.5 nM. In the case of `Cc1ncsc1-c1cnc([C@H](C)NC(=O)[C@@H]2C[C@@H](O)CN2C(=O)[C@H](c2cc(OCCN3CCC(O[C@H]4C[C@H](Oc5cc(N6C7CCC6CN(c6cc(-c8ccccc8O)nnc6N)C7)ccn5)C4)CC3)no2)C(C)C)cn1` [compound 490, (2S,4R)-1-((2S)-2-(3-(2-(4-((1r,3S)-3-((4-(3-(3-amino-6-(2-hydroxyphenyl)pyridazin-4-yl)-3,8-diazabicyclo[3.2.1]octan-8-yl)pyridin-2-yl)oxy)cyclobutoxy)piperidin-1-yl)ethoxy)isoxazol-5-yl)-3-methylbutanoyl)-4-hydroxy-N-((S)-1-(5-(4-methylthiazol-5-yl)pyrazin-2-yl)ethyl)pyrrolidine-2-carboxamide], under setting [4], the DC50 was more than 30 nM. On to `CC(C)[C@@H](C(=O)N1C[C@H](O)C[C@H]1C(=O)N[C@@H](C)c1ccc(C#N)cc1)c1cc(OCC#Cc2ncc(O[C@H]3C[C@H](Oc4cc(N5C6CCC5CN(c5cc(-c7ccccc7O)nnc5N)C6)ccn4)C3)cn2)no1` [compound 387, (2S,4R)-1-((2R)-2-(3-((3-(5-((1r,3R)-3-((4-(3-(3-amino-6-(2-hydroxyphenyl)pyridazin-4-yl)-3,8-diazabicyclo[3.2.1]octan-8-yl)pyridin-2-yl)oxy)cyclobutoxy)pyrimidin-2-yl)prop-2-yn-1-yl)oxy)isoxazol-5-yl)-3-methylbutanoyl)-N-((S)-1-(4-cyanophenyl)ethyl)-4-hydroxypyrrolidine-2-carboxamide], for which the Dmax under setting [3] is more than 75%. Also, under setting [4], the half-maximal degradation concentration (DC50) is less than 2.5 nM. For `Cc1ncsc1-c1ccc([C@H](C)NC(=O)[C@@H]2C[C@@H](O)CN2C(=O)[C@@H](c2cc(OCC#Cc3ncc(O[C@H]4C[C@H](Oc5cc(N6C7CCC6CN(c6cc(-c8ccccc8O)nnc6N)C7)ccn5)C4)cn3)no2)C(C)C)cc1` [compound 232, (2S,4R)-1-((2R)-2-(3-((3-(5-((1r,3R)-3-((4-(3-(3-amino-6-(2-hydroxyphenyl)pyridazin-4-yl)-3,8-diazabicyclo[3.2.1]octan-8-yl)pyridin-2-yl)oxy)cyclobutoxy)pyrimidin-2-yl)prop-2-yn-1-yl)oxy)isoxazol-5-yl)-3-methylbutanoyl)-4-hydroxy-N-((S)-1-(4-(4-methylthiazol-5-yl)phenyl)ethyl)pyrrolidine-2-carboxamide], the 50% degradation concentration (DC50) under setting [1] is less than 2.5 nM. For the same compound, the Dmax under setting [5] is more than 75%.

Source of the values: patent US12539292B2, “BRM targeting compounds and associated methods of use” (Arvinas Operations, Inc., priority 2018, dated 2026).
